{"source": "patent US5252322A", "about": "“Skin tanning compositions containing imidazoles” (The Gillette Company, priority 1992, dated 1993)", "key": {"tyrosinase [1]": {"tested_on": "tyrosinase", "assay": "Tyrosinase activity screening in S91 melanoma cell line", "assay_type": "cell-based", "experimental": "(§1) A screening test is employed to select compounds in vitro before in vivo testing. The better compounds are found to stimulate higher levels of tyrosinase activity in cell cultures. Often the increase in tyrosinase activity is accompanied by a small decrease in cell number.\n(§2) To obtain more rapid results, the tests can be run with a melanoma cell line such as Cloudman S91 melanoma cells. However, if desired, normal human melanocytes (NHM) can also be employed. The compounds to be tested are added as aqueous solutions to the cell culture medium. After four days, the cells are harvested and counted, and a tyrosinase activity assay and a total protein determination are run on cell pellets."}, "tyrosinase [2]": {"tested_on": "tyrosinase", "assay": "Tyrosinase activity assay of cell cultures stimulated with imidazole (cell line not stated)", "assay_type": "cell-based", "conditions": "four days, control (0 mM) 111.9", "experimental": "as §1, §2\nDose-response curves from tyrosinase assays of cells stimulated with imidazole have slopes of about 1.1."}, "[3]": {"tested_on": "pigmented guinea pig skin", "assay": "In vivo tanning test on pigmented guinea pig skin", "experimental": "To confirm the results of in vitro testing, in vivo testing was conducted on pigmented guinea pig skin. Five animals were used in each of the treatment or control groups.\n1. Animals were clipped in a suitably pigmented area over the back or flank and chemically depilated prior to the first treatments. The area was at least 4 cm^2. The treatment site was 3 cm^2 and was carefully marked. Photographs of areas to be treated were taken prior to initial treatments. Animals were clipped as needed throughout the study, depilation was only done prior to evaluations.\n2. Concentrations of imidazole of 0.1, 0.5, 1.0 and 2.0M were applied as a liquid in 50% EtOH. 100 μL volumes were applied via pipette and glass rod with minimal rubbing of the skin.\n3. Treatments were made daily, 5 days per week for 3 weeks. Visual observations and photographic records were made at the study midpoint and 24 hours after the last treatment. Animals were clipped and depilated prior to these evaluations.\n4. The animals were monitored for two weeks following the last treatment. At the end of the fifth week, animals were photographed."}, "tyrosinase [4]": {"tested_on": "tyrosinase", "assay": "Tyrosinase activity screening in normal human melanocytes (NHM)", "assay_type": "cell-based", "conditions": "NHM, 0.5, 10 and 50 mM", "experimental": "as §1, §2"}}}
{"smiles": "O=Cc1ncc[nH]1", "note": "[2-imidazolecarboxaldehyde]", "values": [{"measurement": "tyrosinase activity versus control", "setting": "tyrosinase [1]; at 0.5 mM (tested 0.1, 0.25, 0.5 mM)", "value": "elevated"}, {"measurement": "tyrosinase activity versus control", "setting": "tyrosinase [1]; at 0.1 and 0.25 mM", "value": "decreased activity"}]}
{"smiles": "c1c[nH]cn1", "note": "[imidazole]", "values": [{"measurement": "tyrosinase activity, DPM/1000 cells", "setting": "tyrosinase [2]; 0.5 mM", "value": 210.7, "unit": "DPM/1000 cells"}, {"measurement": "tyrosinase activity, DPM/1000 cells", "setting": "tyrosinase [2]; 1.0 mM", "value": 263.2, "unit": "DPM/1000 cells"}, {"measurement": "tyrosinase activity, DPM/1000 cells", "setting": "tyrosinase [2]; 5.0 mM", "value": 329.2, "unit": "DPM/1000 cells"}, {"measurement": "tyrosinase activity, DPM/1000 cells", "setting": "tyrosinase [2]; 10.0 mM", "value": 516.1, "unit": "DPM/1000 cells"}, {"measurement": "visual observation of treated sites (darkening)", "setting": "[3]; 0.1, 0.5, 1.0 and 2.0M in 50% EtOH, topical 100 μL daily, 5 days per week for 3 weeks", "value": "darkening for all areas"}, {"measurement": "skin irritation", "setting": "[3]; 2.0M solution in 50% EtOH, topical", "value": "appeared to mildly irritate the skin of some of the animals"}, {"measurement": "visual observation of treated sites (degree of tanning)", "setting": "[3]; at 0.5 to 1.0M in 50% EtOH, topical, 3 weeks", "value": "most tanning"}, {"measurement": "course of darkening over time", "setting": "[3]; daily topical treatments for 3 weeks", "value": "continued to increase through the third week"}, {"measurement": "number of treatments after which darkening was observed", "setting": "[3]; daily topical treatments, 5 days per week", "value": "5-10 treatments"}]}
{"smiles": "O=C(O)Cc1c[nH]cn1", "note": "[4-imidazoleacetic acid]", "values": [{"measurement": "tyrosinase activity versus control", "setting": "tyrosinase [1]; 0.5 and 10 mM, may be due to acidic pH of test solutions", "value": "dose dependent decrease"}]}
{"smiles": "OCc1c[nH]cn1", "note": "[4-(hydroxymethyl)imidazole]", "values": [{"measurement": "tyrosinase activity versus control", "setting": "tyrosinase [1]; at 0.25 and 0.5 mM (tested 0.1, 0.25, 0.5 mM)", "value": "slightly increased"}]}
{"smiles": "O=C1NCCN1", "note": "[2-imidazolidone]", "values": [{"measurement": "tyrosinase activity versus control", "setting": "tyrosinase [1]; at 50 mM (tested 0.5, 10, 50 mM)", "value": "slight increase"}, {"measurement": "tyrosinase activity versus control", "setting": "tyrosinase [4]", "value": "moderate inhibition"}]}
{"smiles": "N[C@@H](Cc1c[nH]cn1)C(=O)O", "note": "[L-histidine monochloride monohydrate]", "values": [{"measurement": "tyrosinase activity versus control", "setting": "tyrosinase [1]; at 0.5 mM (tested 0.5 and 10 mM)", "value": "increased tyrosinase activity"}]}
